From patent publication US20250099448A1, “HETEROCYCLIC COMPOUNDS” (Hoffmann-La Roche Inc., priority 2022, published 2025)

Biological target: T1, MAGL protein (Homo sapiens, UniProt Q99685)
T1 sequence (Q99685 1-303): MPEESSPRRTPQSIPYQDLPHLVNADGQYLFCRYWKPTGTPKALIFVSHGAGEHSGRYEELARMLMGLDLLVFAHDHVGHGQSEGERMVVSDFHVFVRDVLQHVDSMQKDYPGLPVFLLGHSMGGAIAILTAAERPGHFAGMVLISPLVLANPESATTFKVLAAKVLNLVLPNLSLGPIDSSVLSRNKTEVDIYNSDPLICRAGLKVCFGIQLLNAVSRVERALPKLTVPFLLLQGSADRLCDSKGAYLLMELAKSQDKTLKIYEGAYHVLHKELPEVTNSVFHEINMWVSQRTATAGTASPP
Assay: 2-AG assay: MAGL inhibitory activity by hydrolysis of 2-arachidonoylglycerol to arachidonic acid, followed by mass spectrometry
Assay type: biochemical
Settings: 8 μM 2-arachidonoylglycerol, 15 min preincubation, 30 min reaction at RT, RapidFire MS readout
Outline: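 MAGL was preincubated 15 min at RT with compound (12.5 to […], 3-fold steps) in 50 mM TRIS, 1 mM EDTA, 0.01% Tween-20, 2.5% DMSO. The reaction ran 30 min at RT with 8 μM 2-AG. Arachidonic acid was quantified by RapidFire SPE-MS/MS against a d8-arachidonic acid internal standard.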

Point of comparison: O=C(N1CC(NS(=O)(=O)C2CCC(F)(F)CC2)C1)N1CC2(CC(c3nnc(C4CC4)[nH]3)C2)C1 [compound 204], IC50 1360 nM. Against it:
- O=C(N1CC(OCC2CCC(F)(F)CC2)C1)N1CC2(CC(c3nnc(C4CC4)[nH]3)C2)C1 [compound 326] — 60-fold lower, 22.8 nM
- O=C(N1CC2(CC(c3nc(C4(O)CC4)n[nH]3)C2)C1)N1CC2(CCN(Cc3ccc(S(=O)(=O)C(F)(F)F)cc3)C2)C1 [compound 714] — 45-fold lower, 30 nM
- Cc1nc(CN2CC3(C2)CN(C(=O)N2CC4(CC(c5nnc(C6CC6)[nH]5)C4)C2)C3)cs1 [compound 896] — 6.5-fold lower, 209 nM
- O=C(N1CC2(CC(c3nnc(C4CC4)[nH]3)C2)C1)N1CC2(CC(S(=O)(=O)c3ccc(F)cc3Cl)C2)C1 [compound 356] — 120-fold lower, 11.7 nM
- O=C(N1CC2(CC(OCC3(C(F)(F)F)CC3)C2)C1)N1CC2(CC(c3nnc(C4(O)CC4)[nH]3)C2)C1 [compound 69] — 64-fold lower, 21.3 nM
- O=C(N1CC(c2ccc(N3CCC4(C3)CC4(F)F)nc2)C1)N1CC2(CC(c3nnc(C4CC4)[nH]3)C2)C1 (stereo not shown) [compound 289] — 3000-fold lower, 0.45 nM
- CS(=N)(=O)c1cc(C(F)(F)F)ccc1CC1CC2(C1)CN(C(=O)N1CC3(CC(c4nc(C5CC5)n[nH]4)C3)C1)C2 (stereo not shown) [compound 481] — 1300-fold lower, 1.06 nM
- N#Cc1ccc(=O)n(CC2CC3(C2)CN(C(=O)N2CC4(CC(c5nc(C6CC6)n[nH]5)C4)C2)C3)c1 [compound 480] — 110-fold lower, 12.1 nM
- O=C(N1CC(c2ccc(NCC3(C(F)(F)F)CC3)nc2)C1)N1CC2(CC(c3nnc(C4CC4)[nH]3)C2)C1 [compound 253] — 9700-fold lower, 0.14 nM
- O=C(N1CC(c2ccc(N3CC4(CCCO4)C3)nc2)C1)N1CC2(CC(c3nnc(C4CC4)[nH]3)C2)C1 [compound 293] — 120-fold lower, 11.1 nM
- Cc1nc(CN2CCN(C(=O)N3CC4(CC(c5nc(C6CC6)n[nH]5)C4)C3)CC2)co1 [Example 879, [6-(3-cyclopropyl-1H-1,2,4-triazol-5-yl)-2-azaspiro[3.3]heptan-2-yl]-[4-[(2-methyloxazol-4-yl)methyl]piperazino]methanone] — 4.5-fold lower, 300 nM
- Cc1cc(C23CC(C4CN(C(=O)N5CC6(CC(c7nc(C8CC(F)(F)C8)n[nH]7)C6)C5)C4)(C2)C3)[nH]n1 [compound 975] — within 1.5-fold, 1550 nM
- CC(C)(C)Cc1nnc(C23CC(C4CN(C(=O)N5CC6(CC(c7nc(C8(O)CC8)n[nH]7)C6)C5)C4)(C2)C3)s1 [compound 466] — 59-fold lower, 22.9 nM
- O=C(N1CC(C23CC(c4nnc(C5(C(F)(F)F)CC5)o4)(C2)C3)C1)N1CC2(CC(c3nc(C4CC4)n[nH]3)C2)C1 [compound 422] — 95-fold lower, 14.3 nM
- O=C(N1CC(c2ccc(NCC3(C(F)(F)F)CC3)cc2)C1)N1CC2(CC(c3nnc(C4CC4)[nH]3)C2)C1 [compound 257] — 17000-fold lower, 0.08 nM
- O=C(N1CC(c2ccc(C3(C(F)(F)F)CC3)nc2)C1)N1CC2(CC(c3nnc(C4CC4)[nH]3)C2)C1 [compound 231] — 400-fold lower, 3.39 nM
- O=C(N1CC2(CC(Cc3ncc(F)cc3F)C2)C1)N1CC2(CC(c3nnc(C4(O)CC4)[nH]3)C2)C1 [compound 116] — 570-fold lower, 2.39 nM
- O=C(N1CC(Oc2ccc(C3CC3)cc2F)C1)N1CC2(CC(c3nnc(C4(O)CC4)[nH]3)C2)C1 [compound 313] — 300-fold lower, 4.59 nM
- N=S(=O)(c1ccc(C(F)(F)F)cc1)C1CCC2(CC1)CN(C(=O)N1CC3(CC(c4nc(C5CC5)n[nH]4)C3)C1)C2 (stereo not shown) [Example 429] — 120-fold lower, 11.8 nM
- CP1(=O)CCN(c2ccc(C3CN(C(=O)N4CC5(CC(c6nnc(C7CC7)[nH]6)C5)C4)C3)cn2)CC1 [compound 53] — 7.6-fold lower, 179 nM
- N=S(=O)(c1ccc(CC2CC3(C2)CN(C(=O)N2CC4(CC(c5nc(C6(O)CC6)n[nH]5)C4)C2)C3)cc1)C(F)(F)F (stereo not shown) [compound 558] — 2300-fold lower, 0.6 nM
- O=C(N1CC2(CC(Cc3ccc4nnc(C(F)(F)F)n4c3)C2)C1)N1CC2(CC(c3nc(C4CC4)n[nH]3)C2)C1 [compound 995] — 500-fold lower, 2.74 nM
- O=C(N1CC(c2ccc(C3(C(F)(F)F)CC3)cc2)C1)N1CC2(CC(c3nnc([C@H](O)C(F)(F)F)[nH]3)C2)C1 (single isomer, unassigned) [compound 230] — 350-fold lower, 3.89 nM
- O=C(N1CC2(CC(Cc3ccc(F)cc3F)C2)C1)N1CC2(CC(c3nc(C4CC(F)(F)C4)n[nH]3)C2)C1 [compound 586] — 250-fold lower, 5.47 nM
- CS(=O)(=O)c1ccc(OCC2CCN(C(=O)N3CC4(CC(c5n[nH]c(C6CC6)n5)C4)C3)CC2)cc1C(F)(F)F [Example 924, [6-(5-cyclopropyl-1H-1,2,4-triazol-3-yl)-2-azaspiro[3.3]heptan-2-yl]-[4-[[4-mesyl-3-(trifluoromethyl)phenoxy]methyl]piperidino]methanone] — 28-fold lower, 49.2 nM
- O=C(N1CC2(CCN(Cc3ccc(C(F)(F)F)nc3)CC2)C1)N1CC2(CC(c3nnc(C4CC4)[nH]3)C2)C1 [compound 176] — 160-fold lower, 8.71 nM
- O=C(N1CC(c2cnc(N3CC[C@@H](C(F)(F)F)C3)nc2)C1)N1CC2(CC(c3nc(C4CC4)n[nH]3)C2)C1 [compound 666] — 620-fold lower, 2.2 nM
- Cc1cc(C(F)(F)F)nn1-c1ccc(C2CN(C(=O)N3CC4(CC(c5nnc(C6(O)CC6)[nH]5)C4)C3)C2)cc1 [compound 408] — 930-fold lower, 1.46 nM
- O=C(N1CC2(CC(Cc3nc(C(F)(F)F)ns3)C2)C1)N1CC2(CC(c3nnc(C4CC4)[nH]3)C2)C1 [compound 59] — 2600-fold lower, 0.53 nM
- N#Cc1cccn(CC2CC3(C2)CN(C(=O)N2CC4(CC(c5nc(C6CC6)n[nH]5)C4)C2)C3)c1=O [compound 510] — 67-fold lower, 20.4 nM
- O=C(N1CC2(CC(Cn3cc(C(F)(F)F)ccc3=O)C2)C1)N1CC2(CC(c3nc(C4CC4)n[nH]3)C2)C1 [compound 406] — 780-fold lower, 1.75 nM
- O=C(N1CC2(CC(c3nnc(C4CC4)[nH]3)C2)C1)N1CC2(C1)CN(c1cncc(F)c1)C2 [compound 936] — 9.9-fold lower, 138 nM
- N#Cc1ccc(OC2CC3(C2)CN(C(=O)N2CC4(CC(c5nc(C6CC6)n[nH]5)C4)C2)C3)cc1C(F)(F)F [compound 605] — 1600-fold lower, 0.86 nM
- O=C(N1CC2(CC(Cn3cc(OC(F)F)ccc3=O)C2)C1)N1CC2(CC(c3nc(C4CC4)n[nH]3)C2)C1 [compound 724] — 360-fold lower, 3.8 nM
- O=C(N1CC2(CC(Cc3ccc4[nH]nc(C(F)(F)F)c4c3)C2)C1)N1CC2(CC(c3nc(C4CC4)n[nH]3)C2)C1 [compound 994] — 23000-fold lower, 0.06 nM
- O=C(N1CC2(CC(c3nc(C4(F)CC4)n[nH]3)C2)C1)N1CC2(CN(Cc3ccc(S(=O)(=O)C(F)(F)F)cc3)C2)C1 [compound 427] — 1000-fold lower, 1.33 nM
- CS(=O)(=O)c1ccc(COC2CCN(C(=O)N3CC4(CC(c5nc(C6(O)CC6)n[nH]5)C4)C3)CC2)c(Cl)c1 [Example 918, [4-(2-chloro-4-mesyl-benzyl)oxypiperidino]-[6-[3-(1-hydroxycyclopropyl)-1H-1,2,4-triazol-5-yl]-2-azaspiro[3.3]heptan-2-yl]methanone] — within 1.5-fold, 964 nM
- O=C(N1CC2(CCC(Oc3ccnc(C(F)(F)F)n3)CC2)C1)N1CC2(CC(c3nnc(C4CC4)[nH]3)C2)C1 [compound 73] — 420-fold lower, 3.24 nM
- CCc1nsc(CN2CC3(C2)CN(C(=O)N2CC4(CC(c5nc(C6CC6)n[nH]5)C4)C2)C3)n1 [compound 762] — 38-fold lower, 35.7 nM
- CS(=O)(=O)c1cc(C(F)(F)F)ccc1OCC1CCN(C(=O)N2CC3(CC(c4nc(C5CC5)n[nH]4)C3)C2)CC1 [Example 915, [6-(3-cyclopropyl-1H-1,2,4-triazol-5-yl)-2-azaspiro[3.3]heptan-2-yl]-[4-[[2-mesyl-4-(trifluoromethyl)phenoxy]methyl]piperidino]methanone] — 5.6-fold lower, 241 nM
- O=C(N1CC(OCc2ccc(S(=O)(=O)C(F)(F)F)cc2F)C1)N1CC2(CC(c3nnc(C4CC4)[nH]3)C2)C1 [compound 309] — 620-fold lower, 2.2 nM
- CS(=O)(=O)c1cc(C(F)(F)F)ccc1CC1CC2(C1)CN(C(=O)N1CC3(CC(c4ncn[nH]4)C3)C1)C2 [compound 633] — within 1.5-fold, 1310 nM
- O=C(N1CC2(CC(Cc3ncc(F)cc3F)C2)C1)N1CC2(CC(c3nc(C(F)(F)F)n[nH]3)C2)C1 [compound 819] — 210-fold lower, 6.59 nM
- O=C(N1CC2(CC(Oc3cncc(C(F)(F)F)n3)C2)C1)N1CC2(CC(c3nnc(C4CC4)[nH]3)C2)C1 [compound 133] — 790-fold lower, 1.73 nM
- O=C(N1CC(NCc2ccc(C(F)(F)F)cc2Cl)C1)N1CC2(CC(c3nnc(C4CC4)[nH]3)C2)C1 [compound 190] — 110-fold lower, 12.6 nM
- O=C(N1CC(c2ccc(C3(C(F)(F)F)CC3)cc2)C1)N1CC2(CC(c3nc(C4CC(F)(F)C4)n[nH]3)C2)C1 [compound 563] — 110-fold lower, 12.7 nM
- N=S(=O)(c1ccc(C2CN(C(=O)N3CC4(CC(c5nc(C6CC6)n[nH]5)C4)C3)C2)cc1)C1CC1 (stereo not shown) [compound 745] — 210-fold lower, 6.37 nM
- O=C(N1CC2(CC(c3nnc(C4(O)CC4)[nH]3)C2)C1)N1CC2(C1)CN(S(=O)(=O)c1ccc(C(F)(F)F)cc1)C2 [compound 104] — 6.9-fold lower, 198 nM
- CS(=O)(=O)c1ccc(CC2CC3(C2)CN(C(=O)N2CC4(CC(c5ncn[nH]5)C4)C2)C3)cc1C(F)(F)F [compound 984] — 2-fold higher, 2770 nM
- O=C(N1CC2(CC(Cc3cncc(C(F)(F)F)c3)C2)C1)N1CC2(CC(c3nnc(C4CC4)[nH]3)C2)C1 [compound 114] — 6200-fold lower, 0.22 nM
- N=S(=O)(c1ccc(C2CN(C(=O)N3CC4(CC(c5nc(C6(O)CC6)n[nH]5)C4)C3)C2)cc1)C1CC1 (stereo not shown) [compound 496] — 37-fold lower, 37 nM
- CC(C)(C)Cc1nnc(C23CC(C4CN(C(=O)N5CC6(CC(c7nc(C8CC(F)(F)C8)n[nH]7)C6)C5)C4)(C2)C3)s1 [compound 583] — 4.6-fold lower, 295 nM
- O=C(N1CC2(CC(Cc3ccc(C(F)(F)F)nn3)C2)C1)N1CC2(CC(c3nc(C4CC(F)(F)C4)n[nH]3)C2)C1 [compound 452] — 3.3-fold lower, 413 nM
- O=C(N1CC2(CC(Cc3cnc4cc(C(F)(F)F)nn4c3)C2)C1)N1CC2(CC(c3nc(C4CC4)n[nH]3)C2)C1 [compound 996] — 2300-fold lower, 0.6 nM
